Data set [1] relates to oxaliplatin-induced neuropathy. To be noted: chronic oxaliplatin, day 31; group O; FIG. 5.
Method: (§1) The animals in the control group received an injection of 5% glucose by the same route, at the same frequency and the same volume.
(§2) These tablets were reduced to a fine powder, and placed in suspension in water containing 0.5% carboxymethylcellulose (Sigma Aldrich, France) in order to obtain a solution at 4 mg/ml. […] The animals in the control group simply received an administration of 0.5% carboxymethylcellulose by the same route, at the same volume and the same frequency.
This test takes place in an arena equipped with a camera in which two animals are placed in one another's presence for 10 minutes. The purpose of this test is to measure the interaction time between the animals. The two studied animals are always part of the same experimental condition group to prevent the behavior of one rat from influencing the other. The rats interact with one another by sniffing, grooming, chasing, etc. An increase in interactions indicates a non-anxious state of the rat, while a decrease and tendency toward prostration indicates an anxious state of the animal. At the beginning of the experiment, the animals are placed in opposite corners of the arena and the handler leaves the room. The arena is cleaned between two experiments to prevent the odors from the previous rats from disrupting the results.
A dose of 5 mg/kg was administered to the animals in groups D and O-D 30 minutes before the test.
The test system of data set [2] is oxaliplatin-induced neuropathy. The conditions noted are these: chronic oxaliplatin, study D0 to D28; group O; FIG. 3.
Method: as §1, §2
The Von Frey electronic apparatus (Chaplan et al., 1994) includes a portable sleeve made up of an elastic tip connected to a force sensor. The rats are placed in Plexiglas boxes, arranged on a raised grate. After a habituation period of the rats, the tip is applied perpendicularly to the center of the 5 plantar pads of each of rear paw. […] The intensity of the stimulus, the maximum applied pressure (expressed in grams) is recorded by the device upon withdrawal of the paw.
(§3) The trials were conducted over a period of 3 hours, on all 4 groups of rats. The time t0 corresponds to the moment of the injection.
The conditions of data set [3]: Park et al. 2011; treatment using oxaliplatin and/or cisplatin; cited from earlier work.
Data set [4] has as its system oxaliplatin-induced neuropathy. To be noted: chronic oxaliplatin, study D0 to D28; group O; FIG. 4.
Method: as §1, §2
The rats' tails are submerged in a cold water bath (10° C.). The immersion is maintained until the animal withdraws its tail. The latency of the withdrawal is clocked. Each measurement is done in triplicate.
as §3
Data set [5] concerns chemically induced neuropathic pain. To be noted: Kautio et al. 2008; Mitchell et al. 2006; cited from earlier work.

These results are taken from US20170128428A1 (priority 2014, published 2017).

In the case of `O=C1[O][Pt-2]2([NH2+]C3CCCC[C@H]3[NH2+]2)[O]C1=O` (stereo in doubt) [oxaliplatin, cis-[(1R, 2R)-1,2-cyclohexanediamine-N, N′] [oxaloto (2)-O, O′] platinum], the “anxiety level (social interaction time) vs Sham group” value in data set [1] is listed as “significantly more anxious than the animals in the Sham group”. In data set [2], the “sensitivity to mechanical stimulation compared to Sham group” value is reported as “increased sensitivity to mechanical stimulation”. Also, the “affected patients in whom the neuropathy becomes persistent” value in data set [3] is reported as “approximately 80%”. In addition, the “sensitivity to cold stimulation compared to Sham group” value in data set [4] is reported as “increased sensitivity”.

On to `CN(C)CCC=C1c2ccccc2CCc2ccccc21` [amitriptyline], for which the “relief in patients treated with oxaliplatin” value in data set [5] is “have not provided any relief”.

Turning to `NCC1(CC(=O)O)CCCCC1` [gabapentin], in data set [5], the “relief in patients treated with oxaliplatin” value was “have not provided any relief”.
